Source: patent US20240057591A1, “ANTIMICROBIAL WET WIPES” (Kimberly-Clark Worldwide, Inc., priority 2021, published 2024)
Marks after values point to notes of the source that are not given here.

Assays:
[1] = system: Burkholderia cepacia ATCC 25416; assay: Reduction of bacterial load by continuous addition of CO2, plate count after contact time; format: cell-based; conditions: n = 2
Method: Each microbe was grown in specified growth conditions (Table 7) using 40 mL of broth media in a sterile 250 mL bottle shaken at 100 RPM. Each microbe was subcultured from broth culture to an agar plate and incubated in specified growth conditions (Table 7). […] 20 mL of reverse osmosis water solution with bacteria was dispensed to a 25 mL hydrothermal synthesis autoclave reactor vessel (25 mL total volume vessel) attached to a continuous CO2 delivery system. The vessels were left connected to the CO2 delivery system at specific contact times at room temperature (25-27° C.). 20 mL of reverse osmosis water with bacteria and filter sterilized reverse osmosis water (no bacteria) were placed in a 150 mL sterile plastic bottle (untreated controls). The untreated controls were left for the same contact time at room temperature (25-27° C.) as CO2 treated vessels. Each microorganism was plated on specified agar media (Table 7) to enumerate bacteria after contact period. Tables 8-10 show the bacterial load reduction achieved after continuous addition of pressurized gas comprising CO2 to contaminated reverse osmosis water or a contaminated solution of reverse osmosis water and Triton X-100.

[2] = pH measurements of preservative free wet wipe formulation after addition of CO2 and exposure to 1 atm (FIG. 5); format: physicochemical
Method: FIG. 5 is an exemplary embodiment depicting a graph of pH measurements of 100 mL of preservative free wet wipe formulation after addition of 8.2 g of CO2, and subsequent exposure to 1 atm (20° C.) in accordance with the present disclosure.

[3] = system: Burkholderia cepacia (ATCC 25416); assay: Reduction of bacterial load by adding CO2 in a pressurized vessel (whipped cream dispenser), plate count after 72 hr; format: cell-based; conditions: for Recovered Bacteria, Average CFU/mL, With CO2: 72 hr, 25° C., n = 3
Method: Burkholderia cepacia (ATCC 25416) was grown overnight in 40 mL trypticase soy broth in 250 mL bottle shaken at 100 RPM at 30° C. […] 100 mL of either solution were placed in a whipped cream dispenser (670 mL total volume container), and then different amounts of carbon dioxide (CO2) were injected into the container.
100 mL of each solution were then placed in a 150 mL sterile plastic bottle (untreated control). Both samples were placed on a wrist action shaker for 2 hr at 100 rpm at room temperature (25° C.), and then placed on an orbital shaker for 70 hr at 100 rpm at room temperature (25° C.). The total time each sample was at room temperature (25° C.) was 72 hr. After 72 hr, each sample was plated on trypticase soy agar to enumerate bacterial growth after contact period.

[4] = system: Staphylococcus aureus ATCC 6538; assay: Reduction of microorganism load by continuous addition of CO2, plate count after contact time; format: cell-based; conditions: 300 psi CO2 continuously, reverse osmosis water, n = 2
Method: (§1) Each microbe was grown in specified growth conditions (Table 7) using 40 mL of broth media in a sterile 250 mL bottle shaken at 100 RPM. Each microbe was subcultured from broth culture to an agar plate and incubated in specified growth conditions (Table 7). 100 μL of bacterial or fungal suspension matching the turbidity of a 0.5 or 1 MacFarland Standard were added to 100 mL of filter-sterilized reverse osmosis water (final concentration approximately 1×10^6 or 5×10^1 CFU/mL). 20 mL of reverse osmosis water solution with bacteria was dispensed to a 25 mL hydrothermal synthesis autoclave reactor vessel (25 mL total volume vessel) attached to a continuous CO2 delivery system. The vessels were left connected to the CO2 delivery system at specific contact times at room temperature (25-27° C.). 20 mL of reverse osmosis water with bacteria and filter sterilized reverse osmosis water (no bacteria) were placed in a 150 mL sterile plastic bottle (untreated controls). The untreated controls were left for the same contact time at room temperature (25-27° C.) as CO2 treated vessels. Each microorganism was plated on specified agar media (Table 7) to enumerate bacteria after contact period. Tables 8-10 show the bacterial load reduction achieved after continuous addition of pressurized gas comprising CO2 to contaminated reverse osmosis water or a contaminated solution of reverse osmosis water and Triton X-100.

[5] = system: Pseudomonas aeruginosa ATCC 9027; assay: as above; format: cell-based; conditions: 300 psi CO2 continuously, reverse osmosis water, n = 2
Method: as §1

[6] = system: Escherichia coli ATCC 8739; assay: as above; format: cell-based; conditions: 300 psi CO2 continuously, reverse osmosis water, n = 2
Method: as §1

[7] = system: Candida albicans ATCC 10231; assay: as above; format: cell-based; conditions: 300 psi CO2 continuously, reverse osmosis water, n = 2
Method: as §1

Q: With `O=C=O` [CO2, carbon dioxide] as the compound, how does the “Average Recovered CFU/mL, With CO2” value ([1]; 100 psi CO2 continuously, reverse osmosis water and 0.2% (v/v) Triton X-100, approximately 1.0 × 10^4 inoculum, 15 minutes) read?
A: The value was 2.1 × 10^3 CFU/mL.

Q: What about the “Average Recovered CFU/mL, With CO2” value ([1]; 100 psi CO2 continuously, reverse osmosis water and 0.2% (v/v) Triton X-100, approximately 1.0 × 10^4 inoculum, 30 minutes) of the same compound?
A: Its value is 1.2 × 10^3 CFU/mL.

Q: And the “Average Recovered CFU/mL, With CO2” value ([1]; 100 psi CO2 continuously, reverse osmosis water and 0.2% (v/v) Triton X-100, approximately 1.0 × 10^4 inoculum, 60 minutes)?
A: The value was 6.3 × 10^2 CFU/mL.

Q: What about the “Average Recovered CFU/mL (Standard Deviation), With CO2” value ([1]; 300 psi CO2 continuously, 20 mL reverse osmosis water, 0.5 hours) of the same compound?
A: Its value is 5.0 × 10^5 (1.0 × 10^5) CFU/mL.

Q: What about the “Average Recovered CFU/mL (Standard Deviation), With CO2” value ([1]; 300 psi CO2 continuously, 20 mL reverse osmosis water, 1 hour) of the same compound?
A: The value was 4.5 × 10^5 (2.5 × 10^5) CFU/mL.

Q: And the “Average Recovered CFU/mL (Standard Deviation), With CO2” value ([1]; 300 psi CO2 continuously, 20 mL reverse osmosis water, 1.5 hours)?
A: The value was 5.0 × 10^5 (2.0 × 10^5) CFU/mL.

Q: And the “Average Recovered CFU/mL (Standard Deviation), With CO2” value ([1]; 300 psi CO2 continuously, 20 mL reverse osmosis water, 2 hours)?
A: Its value is 3.1 × 10^4 (7.0 × 10^3) CFU/mL.

Q: And the “Average Recovered CFU/mL (Standard Deviation), With CO2” value ([1]; 300 psi CO2 continuously, 20 mL reverse osmosis water, 2.5 hours)?
A: Its value is 8.0 × 10^3 (2.0 × 10^3) CFU/mL.

Q: What about the “Average Recovered CFU/mL (Standard Deviation), With CO2” value ([1]; 300 psi CO2 continuously, 20 mL reverse osmosis water, 3 hours) of the same compound?
A: Its value is <1 (n/a) CFU/mL.

Q: What about the “Average Recovered CFU/mL (Standard Deviation), With CO2” value ([1]; 300 psi CO2 continuously, 20 mL reverse osmosis water, 6 hours) of the same compound?
A: The value was <1 (n/a) CFU/mL.

Q: And the “Average Recovered CFU/mL (Standard Deviation), With CO2” value ([1]; 300 psi CO2 continuously, 20 mL reverse osmosis water, 24 hours)?
A: The value was <1 (n/a) CFU/mL.

Q: And the “Average Recovered CFU/mL (Standard Deviation), With CO2” value ([1]; Table 9: 100 psi CO2 (approx. 0.231 mol/L), reverse osmosis water, 2 hours)?
A: Its value is 2.3 × 10^4 (1.0 × CFU/mL.

Q: What about the “Average Recovered CFU/mL (Standard Deviation), With CO2” value ([1]; Table 9: 100 psi CO2 (approx. 0.231 mol/L), reverse osmosis water, 4 hours) of the same compound?
A: The value was 1.2 × 10^4 (4.0 × CFU/mL.

Q: What about the “Average Recovered CFU/mL (Standard Deviation), With CO2” value ([1]; Table 9: 100 psi CO2 (approx. 0.231 mol/L), reverse osmosis water, 6 hours) of the same compound?
A: Its value is 1.2 × 10^4 (3.5 × CFU/mL.

Q: What about the “Average Recovered CFU/mL (Standard Deviation), With CO2” value ([1]; Table 9: 200 psi CO2 (approx. 0.463 mol/L), reverse osmosis water, 2 hours) of the same compound?
A: Its value is 1.2 × 10^3 (1.5 × CFU/mL.

Q: What about the “Average Recovered CFU/mL (Standard Deviation), With CO2” value ([1]; Table 9: 200 psi CO2 (approx. 0.463 mol/L), reverse osmosis water, 4 hours) of the same compound?
A: Its value is 1.0 × 10^2 (1.0 × CFU/mL.

Q: What about the “Average Recovered CFU/mL (Standard Deviation), With CO2” value ([1]; Table 9: 200 psi CO2 (approx. 0.463 mol/L), reverse osmosis water, 6 hours) of the same compound?
A: The value was 1.4 × 10^1 (<10) CFU/mL.

Q: And the “Average Recovered CFU/mL (Standard Deviation), With CO2” value ([1]; Table 9: 300 psi CO2 (approx. 0.694 mol/L), reverse osmosis water, 2 hours)?
A: Its value is 9.0 × 10^2 (1.0 × CFU/mL.

Q: What about the “Average Recovered CFU/mL (Standard Deviation), With CO2” value ([1]; Table 9: 300 psi CO2 (approx. 0.694 mol/L), reverse osmosis water, 4 hours) of the same compound?
A: Its value is 5.0 × 10^1 (5.0 × CFU/mL.

Q: What about the “Average Recovered CFU/mL (Standard Deviation), With CO2” value ([1]; Table 9: 300 psi CO2 (approx. 0.694 mol/L), reverse osmosis water, 6 hours) of the same compound?
A: The value was <10 (n/a) CFU/mL.

Q: And the “Average Recovered CFU/mL, With CO2” value ([1]; Table 10: 300 psi CO2 continuously, reverse osmosis water, 2 Hours)?
A: Its value is 1.3 × 10^3 CFU/mL.

Q: And the “Average Recovered CFU/mL, With CO2” value ([1]; Table 10: 300 psi CO2 continuously, reverse osmosis water, 4 Hours)?
A: The value was 2.5 × 10^1 CFU/mL.

Q: And the “Average Recovered CFU/mL, With CO2” value ([1]; Table 10: 300 psi CO2 continuously, reverse osmosis water, 6 Hours)?
A: Its value is <10 CFU/mL.

Q: What about the “Reduction of pH of wet wipe formulation” value ([2]; 100 mL preservative free wet wipe formulation after addition of 8.2 g of CO2 (FIG. 5)) of the same compound?
A: The value was “approximately 0.20 pH units”.

Q: What about the “Dissipation of solubilized CO2 from wet wipe formulation” value ([2]; after exposure to atmospheric conditions (1 atm, 20° C.; FIG. 5)) of the same compound?
A: The value was “quickly dissipated”.

Q: And the “Recovered Bacteria, Average CFU/mL, With CO2” value (“Recovered Bacteria” below) ([3]; 8.2 g of CO2 to 100 mL preservative-free wet wipe formulation, approximately 1 × 10^6 CFU/mL)?
A: The value was <10 CFU/mL.

Q: And the “Recovered Bacteria” value ([3]; 8.2 g of CO2 to 100 mL reverse osmosis water, approximately 1 × 10^6 CFU/mL)?
A: Its value is 1.1 × 10^3 CFU/mL.

Q: What about the “Recovered Bacteria” value ([3]; 8.2 g of CO2 to 100 mL reverse osmosis water, approximately 5 × 10^1 CFU/mL) of the same compound?
A: The value was <10 CFU/mL.

Q: And the “Recovered Bacteria” value ([3]; 16.0 g of CO2 to 100 mL reverse osmosis water, approximately 1 × 10^5 CFU/mL)?
A: Its value is <10 CFU/mL.

Q: And the “Recovered Bacteria” value ([3]; 23.7 g of CO2 to 100 mL reverse osmosis water, approximately 1 × 10^5 CFU/mL)?
A: The value was <10 CFU/mL.

Q: What about the “Microbial growth compared to no added CO2” value ([3]; pressurized gas comprising carbon dioxide added to contaminated preservative-free wet wipe formulation) of the same compound?
A: Its value is “greatly reduced microbial growth”.

Q: What about the “Microbial growth compared to no added CO2” value ([3]; pressurized gas comprising carbon dioxide added to contaminated water) of the same compound?
A: Its value is “greatly reduced microbial growth”.

Q: What about the “Average Recovered CFU/mL, With CO2” value ([4]; 2 Hours) of the same compound?
A: Its value is 6.0 × 10^2 CFU/mL.

Q: And the “Average Recovered CFU/mL, With CO2” value ([4]; 4 Hours)?
A: The value was 1.3 × 10^2 CFU/mL.

Q: And the “Average Recovered CFU/mL, With CO2” value ([4]; 6 Hours)?
A: Its value is <10 CFU/mL.

Q: And the “Average Recovered CFU/mL, With CO2” value ([5]; 2 Hours)?
A: Its value is 3.5 × 10^2 CFU/mL.

Q: And the “Average Recovered CFU/mL, With CO2” value ([5]; 4 Hours)?
A: Its value is <10 CFU/mL.

Q: What about the “Average Recovered CFU/mL, With CO2” value ([5]; 6 Hours) of the same compound?
A: The value was <10 CFU/mL.

Q: What about the “Average Recovered CFU/mL, With CO2” value ([6]; 2 Hours) of the same compound?
A: The value was 1.0 × 10^3 CFU/mL.

Q: What about the “Average Recovered CFU/mL, With CO2” value ([6]; 4 Hours) of the same compound?
A: The value was 2.5 × 10^2 CFU/mL.

Q: And the “Average Recovered CFU/mL, With CO2” value ([6]; 6 Hours)?
A: The value was <10 CFU/mL.

Q: And the “Average Recovered CFU/mL, With CO2” value ([7]; 2 Hours)?
A: Its value is 5.3 × 10^2 CFU/mL.

Q: And the “Average Recovered CFU/mL, With CO2” value ([7]; 4 Hours)?
A: The value was 1.0 × 10^2 CFU/mL.

Q: And the “Average Recovered CFU/mL, With CO2” value ([7]; 6 Hours)?
A: The value was <10 CFU/mL.
